Source: BindingDB's records for patent US12065407 (Plex Pharmaceuticals, 2024)
pKi: −log10 of the molar value.

Columns and labels:
[1] = target: Peptidyl-prolyl cis-trans isomerase FKBP1A (Homo sapiens, UniProt P62942); test: Ki Estimation
[2] = target: T1, Peptidyl-prolyl cis-trans isomerase FKBP4 (Homo sapiens, UniProt Q02790); test: Ki Estimation
T1 sequence (Q02790 whole entry): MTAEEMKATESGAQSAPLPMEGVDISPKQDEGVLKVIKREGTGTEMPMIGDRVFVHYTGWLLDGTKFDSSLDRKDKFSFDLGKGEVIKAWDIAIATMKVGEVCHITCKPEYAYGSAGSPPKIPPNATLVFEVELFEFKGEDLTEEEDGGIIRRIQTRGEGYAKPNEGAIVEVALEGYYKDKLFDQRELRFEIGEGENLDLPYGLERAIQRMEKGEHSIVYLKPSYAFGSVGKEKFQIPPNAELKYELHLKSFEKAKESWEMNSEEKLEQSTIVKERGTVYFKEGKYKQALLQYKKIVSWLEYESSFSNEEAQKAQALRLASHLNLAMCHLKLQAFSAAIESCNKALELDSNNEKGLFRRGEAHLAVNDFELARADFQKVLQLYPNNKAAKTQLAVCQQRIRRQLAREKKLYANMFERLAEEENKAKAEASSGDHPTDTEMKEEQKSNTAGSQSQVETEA

Sequence of Peptidyl-prolyl cis-trans isomerase FKBP1A (P62942 whole entry): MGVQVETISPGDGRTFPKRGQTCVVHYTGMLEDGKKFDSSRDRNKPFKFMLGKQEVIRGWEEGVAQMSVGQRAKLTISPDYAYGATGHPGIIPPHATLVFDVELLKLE

| pKi [1] | pKi [2] | Structure (SMILES) |
| --- | --- | --- |
| < 4.60 | < 4.60 | CCC(C)(C)C(=O)N[C@H](C(=O)OCCCc1cccnc1)C1CCCC1 [US12065407, ID Tbl1.1] |
| < 5.00 | < 5.00 | Cn1c(/C=C/c2ccc(Cl)cc2)nc2ccccc21 [US12065407, ID CAP01509] |
|  | < 4.30 | O=C(N[C@@H](Cc1ccc(Cl)cc1)C(=O)NCCCc1ccccc1)c1nc2ccccc2[nH]1 [US12065407, ID CAP01721] |
| < 4.40 | < 4.40 | O=C(N[C@@H](Cc1ccc(F)cc1)C(=O)NCCCc1ccccc1)c1ccc2ccccc2c1 [US12065407, ID CAP01740] |
| 4.49 |  | O=C(N[C@@H](Cc1ccc(Cl)cc1)C(=O)NCCCc1ccccc1)C1C2CC3CC(C2)CC1C3 (stereo partly specified) [US12065407, ID CAP01685] |
| < 4.60 | < 4.60 | O=C(N[C@@H](Cc1ccc(Cl)cc1)C(=O)NCCCc1ccccc1)c1ccc(F)cc1 [US12065407, ID CAP01719] |

The remaining lines, values behind:

| Structure (SMILES) | pKi [1] | pKi [2] |
| --- | --- | --- |
| C(=C\c1nc2ccccc2n1Cc1ccccc1)/c1ccccc1 [US12065407, ID CAP01548] | < 4.82 | < 4.70 |
| CC(C)Cn1c(/C=C/c2ccccc2)nc2ccccc21 [US12065407, ID CAP01555] | < 4.82 | < 4.70 |
| CCCCn1c(/C=C/c2ccccc2)nc2ccccc21 [US12065407, ID CAP01554] | < 5.00 | < 4.82 |
| O=C(N[C@H](Cc1ccc(Cl)cc1)C(=O)NCCCc1ccccc1)c1ccc2ccccc2c1 [US12065407, ID CAP01691] | < 4.30 |  |
| CCCn1c(/C=C/c2ccccc2)nc2ccccc21 [US12065407, ID CAP01549] | < 4.70 | < 4.60 |
| Fc1ccccc1Cn1c(/C=C/c2ccccc2)nc2ccccc21 [US12065407, ID CAP01547] | < 5.00 | < 4.82 |
